Publication PMC10726355, “Small Molecule Ligands of the BET-like Bromodomain, SmBRD3, Affect Schistosoma mansoni Survival, Oviposition, and Development” (Journal of Medicinal Chemistry, 2023)

Assays:
SmBRD3(1,2) [1] = assay: Differential scanning fluorimetry (thermal shift), SmBRD3(1,2); details: DSF; 50 μM compound
Experimental: difference between the transition midpoints of sample and reference wells containing protein without inhibitor in the same plate. Reported ΔTm values are the mean of two replicates.
Isothermal titration calorimetry experiments were performed on a MicroCal PEAQ-ITC Automated or Manual (Malvern) and analysed with the MicroCal PEAQ-ITC Analysis software (Malvern 1.1.0.1262) using a single binding site model. For each experiment, the first data point was removed from the analysis. The proteins were dialysed at 4 °C overnight in a Slide-A-LyzerR MINI Dialysis Device (2000 MWCO; Thermo Scientific Life Technologies) into 50 mM HEPES, 150 mM NaCl containing 0.2% DMSO; pH 7.4. Proteins were centrifuged to remove aggregates (3 min, 3000 rpm, 25 °C).
Compounds were dissolved as a DMSO stock solution and diluted to the required concentration using dialysis buffer (DMSO free) and to a final DMSO concentration of 0.2% (unless otherwise specified). The cell was stirred at 750 rpm, reference power set to 5 μcal/s and temperature held at 25 °C. After an initial delay of 60 s, 19 x 2 μL injections (first injection 0.4 μL) were performed with a spacing of 180 s. […]

SmBRD3(2) [2] = target: T1, SmBRD3(2) (Schistosoma mansoni, UniProt A0A5K4ESD7); assay: biochemical; format: binding
SmBRD3(2) [3] = target: T1, SmBRD3(2); assay: Differential scanning fluorimetry (thermal shift), SmBRD3(2); format: binding; details: DSF; 50 μM compound
Experimental: Reported ΔTm values are the mean of two replicates.
Differential scanning fluorimetry assay
The differential scanning fluorimetry (DSF) or thermal stability assays were carried out following the protocol described by Niesen et al. and data were analysed as described previously.8 Thermal melting experiments were carried out using the Mx3005p real-time PCR machine (Agilent) and employing a protein concentration of 5 μM for the schistosomal bromodomains [SmBRD3(2), […]
the DMSO content was 0.5% (v/v). Buffer conditions were 50 mM HEPES buffer, pH 7.5, 500 mM NaCl and a 1:500 dilution of SYPRO® Orange (Invitrogen, CA) was used. The 96-well PCR plates were sealed and centrifuged for 2 min at 1000 rpm at 25 °C before measurement. The temperature was raised with a step of 1 °C per 30 s from 25 °C to 85 °C, and fluorescence readings were taken at each interval. […]
Isothermal titration calorimetry experiments were performed on a MicroCal PEAQ-ITC Automated or Manual (Malvern) and analysed with the MicroCal PEAQ-ITC Analysis software (Malvern 1.1.0.1262) using a single binding site model. […]
Male adult schistosomes were seeded into 24-well tissue culture plates (5 worms/well), dosed with compounds (20 µM in 0.2% DMSO v/v) and incubated for 24 h at 37 °C in 5% CO2. […] When ready for processing, worms were removed from the −80 °C and subject to 3 rounds of repeated snap freeze:thawing. […]

SmBRD3(1,2) [4] = target: SmBRD3(1,2) (Schistosoma mansoni, UniProt A0A5K4ESD7); assay: biochemical; format: binding; details: for Kd: ITC
Chain of SmBRD3(1,2) (Schistosoma mansoni, UniProt A0A5K4ESD7) (A0A5K4ESD7 entry or part of it): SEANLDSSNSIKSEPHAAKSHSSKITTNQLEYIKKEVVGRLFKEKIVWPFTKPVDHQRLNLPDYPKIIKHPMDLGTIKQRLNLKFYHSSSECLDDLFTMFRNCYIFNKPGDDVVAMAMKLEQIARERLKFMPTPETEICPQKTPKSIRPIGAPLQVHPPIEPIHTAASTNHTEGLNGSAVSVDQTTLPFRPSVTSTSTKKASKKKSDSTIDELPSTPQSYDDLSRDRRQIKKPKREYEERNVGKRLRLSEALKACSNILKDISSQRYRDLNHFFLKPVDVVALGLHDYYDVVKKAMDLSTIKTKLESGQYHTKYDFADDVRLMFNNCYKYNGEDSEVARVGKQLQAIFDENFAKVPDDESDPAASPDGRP

T1 sequence (A0A5K4ESD7 entry or part of it): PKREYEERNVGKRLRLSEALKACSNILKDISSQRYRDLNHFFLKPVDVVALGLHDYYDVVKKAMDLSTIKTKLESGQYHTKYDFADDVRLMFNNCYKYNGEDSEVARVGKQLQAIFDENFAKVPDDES

With `CC(=O)N1c2ccc(-c3ccc(C(=O)O)cc3)cc2[C@H](Nc2ccc(Cl)cc2)C[C@@H]1C` [I-BET726 (8), I-BET726, reference compound] the “Thermal stabilisation (ΔTm) of SmBRD3(1,2)” value (SmBRD3(1,2) [1]) was “stabilize both SmBRD3(1,2) and SmBRD3(2)”, the “N number, binding to SmBRD3(2), Repeat 1” value (SmBRD3(2) [2]; ITC stoichiometry, Repeat 1) was 1.12 ± 4.2e-2 and the “N number, binding to SmBRD3(2), Mean” value (SmBRD3(2) [2]; ITC stoichiometry, mean of repeats) was 1.12 ± 4.2e-2. The Kd (SmBRD3(2) [2]; SmBRD3(2) Kd, ITC, single value ± error of the curve fit or mean of 2-3 repeats ± s.e.m.) was 1.85 ± 0.361 µM, the Kd (SmBRD3(2) [2]; SmBRD3(2) Kd, Repeat 1, ITC, single run ± error of curve fit, Repeat 1) was 1.85 ± 0.361 µM and the Kd (SmBRD3(2) [2]; SmBRD3(2) pKd, ITC) was 2 µM. For the same compound, the “Thermal stabilisation (ΔTm) of SmBRD3(2)” value (SmBRD3(2) [3]) was “stabilize both SmBRD3(1,2) and SmBRD3(2)”, the “N number, binding to SmBRD3(1,2)” value (SmBRD3(1,2) [4]; ITC stoichiometry, n=1 ± error of curve fit) was 1.66 ± 6.7e-2 and the Kd (SmBRD3(1,2) [4]; SmBRD3(1,2) Kd, n = 1 ± error of the curve fit) was 1.52 ± 0.52 µM. The Kd (SmBRD3(1,2) [4]; SmBRD3(1,2) pKd) was 1.58 µM.
